Experimental data taken from patent publication US5134137A, “Cephalosporin antibiotics” (The Upjohn Company, priority 1990, dated 1992).
In brackets after ≈: the same amount, converted by molar mass. Where two headings read alike, the source gives them in different places.

Key:
Type in all cases: cell-based
Corynebacterium pyogenes = test: MIC, agar dilution, Corynebacterium pyogenes; details: strain 213-2; read-out: MIC
Procedure: (§1) Stock solution of each test antibiotic compound were prepared to have a concentration of 2 mg. of the test compound per milliliter in sterile water of 0.1M ammonium acetate solution. The amount of each compound used was adjusted for base compound activity as calculated from the purity data for the selected batch of compound.
(§2) The dilution procedure described by Washington and Sutter [Manual of Clinical Microbiology, 3rd, Edit. (Lennett, E. H. et al, Eds.), pp. 453-458 (1980), American Society for Microbiology, Washington, D.C.] was modified so that serial concentrations of 128 to 0.0625 microgram/ml. in sterile water was obtained. Then 1.5 ml. aliquots of these test antibiotic dilution mixtures are added to 13.5 molten (50° C.) Mueller-Hinton agar. Each resulting mixture is poured into 15×100 mm, sterile Petri plates and allowed to dry at room temperature overnight.
(§3) Test bacterial cultures are maintained at -70° C. on glass beads. [See R. J. Yancey, Jr. et al, Amer. Jr. of Vet. Research, 48, No. 7, pp. 1050-1053, (1987)]. At least one bacteria-laden bead per culture is dropped into one ml. of brain heart infusion (BHI) broth for overnight culture at 37° C. in 5% V/V carbon dioxide in air atmosphere.
(§4) On the data of assay, 2 to 8 drops of the bacterial broth cultures are transferred to fresh BHI broth (1 ml.) and the mixture is incubated for 4 to 6 hours at 37° C. in a 5% V/V carbon dioxide in air atmosphere. The resulting cultures are then diluted to match a 0.5 MacFarland standard and further diluted 1:20 V/V with sterile saline solution.
(§5) A 0.001 ml. drop of the resulting mixture, containing approximately 10^3 to 10^4 colony forming units (CFU) of each test bacteria organism, is dispensed onto the surface of the test antibiotic compound test plates with a Steer's type replicator. The resulting innoculated plates are incubated 16 to 18 hours at 37° C. with a carbon dioxide atmosphere.
as §1, with “Stock solutions” for “Stock solution”
as §2, with “mm.” for “mm,”
as §2, with “for Microbiology.” for “for Microbiology,”, “15×100 mm.” for “15×100 mm,”
as §3, with “culture” for “cultures”
(§6) On the day of assay, 2 to 8 drops of the bacterial broth cultures are transferred to fresh BHI broth (1 ml.) and the mixture is incubated for 4 to 6 hours at 37° C. in a 5% V/V carbon dioxide in air atmosphere. […]

Streptococcus suis = test: MIC, agar dilution, Streptococcus suis; details: Streptococcus suis; strain 650-2; read-out: MIC
Procedure: as §1, §2, §3, §4, §5
as §1, with “Stock solutions” for “Stock solution”
as §2, with “mm.” for “mm,”
as §2, with “for Microbiology.” for “for Microbiology,”, “15×100 mm.” for “15×100 mm,”
as §3, with “culture” for “cultures”
as §6

[1] = tested on: Bordetella bronchiseptica; test: MIC, agar dilution, Bordetella bronchiseptica; details: Bordetella bronchiseptica; strain UC6313; read-out: MIC
Procedure: as §1, §2, §3, §4, §5
as §1, with “Stock solutions” for “Stock solution”
as §2, with “mm.” for “mm,”
as §2, with “for Microbiology.” for “for Microbiology,”, “15×100 mm.” for “15×100 mm,”
as §3, with “culture” for “cultures”
as §6

Enterococcus faecalis = test: MIC, agar dilution, Enterococcus faecalis; details: Enterococcus faecalis; strain UC694; read-out: MIC
Procedure: as §1, with “Stock solutions” for “Stock solution”
as §2, §3, §4, §5, §1
as §2, with “mm.” for “mm,”
as §2, with “for Microbiology.” for “for Microbiology,”, “15×100 mm.” for “15×100 mm,”
as §3, with “culture” for “cultures”
as §6

Pseudomonas aeruginosa = test: MIC, agar dilution, Pseudomonas aeruginosa; details: Pseudomonas aeruginosa, ATCC27853; strain ATCC 27853; read-out: MIC
Procedure: as §1, §2, §3, §4, §5
as §1, with “Stock solutions” for “Stock solution”
as §2, with “mm.” for “mm,”
as §2, with “for Microbiology.” for “for Microbiology,”, “15×100 mm.” for “15×100 mm,”
as §3, with “culture” for “cultures”
as §6

Staphylococcus aureus = test: MIC, agar dilution, Staphylococcus aureus; details: Staphylococcus aureus, read-out: MIC
Procedure: as §1, §2, §3, §4, §5
as §1, with “Stock solutions” for “Stock solution”
as §2, with “mm.” for “mm,”
as §2, with “for Microbiology.” for “for Microbiology,”, “15×100 mm.” for “15×100 mm,”
as §3, with “culture” for “cultures”
as §6

Pasteurella hemolytica = test: MIC (minimum inhibitory concentration), agar dilution, Pasteurella hemolytica; details: Pasteurella, read-out: MIC
Procedure: as §1, §2, §3, §4, §5
as §1, with “Stock solutions” for “Stock solution”
as §2, with “mm.” for “mm,”
as §2, with “for Microbiology.” for “for Microbiology,”, “15×100 mm.” for “15×100 mm,”
as §3, with “culture” for “cultures”
as §6

[2] = tested on: Streptococcus dysgalactiae; test: MIC, agar dilution, Streptococcus dysgalactiae; details: Streptococcus dysgalactiae; strain UC251; read-out: MIC
Procedure: as §1, §2, §3, §4, §5
as §1, with “Stock solutions” for “Stock solution”
as §2, with “mm.” for “mm,”
as §2, with “for Microbiology.” for “for Microbiology,”, “15×100 mm.” for “15×100 mm,”
as §3, with “culture” for “cultures”
as §6

Enterococcus faecium = test: MIC, agar dilution, Enterococcus faecium; details: Enterococcus faecium; strain UC241; read-out: MIC
Procedure: as §1, with “Stock solutions” for “Stock solution”
as §2, §3, §4, §5, §1
as §2, with “mm.” for “mm,”
as §2, with “for Microbiology.” for “for Microbiology,”, “15×100 mm.” for “15×100 mm,”
as §3, with “culture” for “cultures”
as §6

Salmonella choleraesuis = test: MIC, agar dilution, Salmonella choleraesuis; details: Salmonella enterica, read-out: MIC
Procedure: as §1, §2, §3, §4, §5
as §1, with “Stock solutions” for “Stock solution”
as §2, with “mm.” for “mm,”
as §2, with “for Microbiology.” for “for Microbiology,”, “15×100 mm.” for “15×100 mm,”
as §3, with “culture” for “cultures”
as §6

Micrococcus luteus = test: MIC, agar dilution, Micrococcus luteus; details: Micrococcus luteus; strain UC130; read-out: MIC
Procedure: as §1, §2, §3, §4, §5
as §1, with “Stock solutions” for “Stock solution”
as §2, with “mm.” for “mm,”
as §2, with “for Microbiology.” for “for Microbiology,”, “15×100 mm.” for “15×100 mm,”
as §3, with “culture” for “cultures”
as §6

Pasteurella multocida = test: MIC, agar dilution, Pasteurella multocida; details: Pasteurella multocida; strain UC9581; read-out: MIC
Procedure: as §1, §2, §3, §4, §5
as §1, with “Stock solutions” for “Stock solution”
as §2, with “mm.” for “mm,”
as §2, with “for Microbiology.” for “for Microbiology,”, “15×100 mm.” for “15×100 mm,”
as §3, with “culture” for “cultures”
as §6

Streptococcus agalactiae = test: MIC, agar dilution, Streptococcus agalactiae; details: Streptococcus agalactiae, read-out: MIC
Procedure: as §1, §2, §3, §4, §5
as §1, with “Stock solutions” for “Stock solution”
as §2, with “mm.” for “mm,”
as §2, with “for Microbiology.” for “for Microbiology,”, “15×100 mm.” for “15×100 mm,”
as §3, with “culture” for “cultures”
as §6

Streptococcus uberis = test: MIC, agar dilution, Streptococcus uberis; details: Streptococcus uberis, read-out: MIC
Procedure: as §1, §2, §3, §4, §5
as §1, with “Stock solutions” for “Stock solution”
as §2, with “mm.” for “mm,”
as §2, with “for Microbiology.” for “for Microbiology,”, “15×100 mm.” for “15×100 mm,”
as §3, with “culture” for “cultures”
as §6

Streptococcus bovis = test: MIC, agar dilution, Streptococcus bovis; details: Streptococcus equinus; strain UC6281; read-out: MIC
Procedure: as §1, §2, §3, §4, §5
as §1, with “Stock solutions” for “Stock solution”
as §2, with “mm.” for “mm,”
as §2, with “for Microbiology.” for “for Microbiology,”, “15×100 mm.” for “15×100 mm,”
as §3, with “culture” for “cultures”
as §6

Escherichia coli = test: MIC, agar dilution, Escherichia coli; details: Escherichia coli, read-out: MIC
Procedure: as §1, §2, §3, §4, §5
as §1, with “Stock solutions” for “Stock solution”
as §2, with “mm.” for “mm,”
as §2, with “for Microbiology.” for “for Microbiology,”, “15×100 mm.” for “15×100 mm,”
as §3, with “culture” for “cultures”
as §6

Salmonella typhimurium = test: MIC, agar dilution, Salmonella typhimurium; details: Salmonella enterica, read-out: MIC
Procedure: as §1, §2, §3, §4, §5
as §1, with “Stock solutions” for “Stock solution”
as §2, with “mm.” for “mm,”
as §2, with “for Microbiology.” for “for Microbiology,”, “15×100 mm.” for “15×100 mm,”
as §3, with “culture” for “cultures”
as §6

[3] = CHOLERAESUIS / UC6073, strain UC6073
[4] = CHOLERAESUIS / UC6077, strain UC6077
[5] = TYPHIMURIUM / UC6162, strain UC6162
[6] = TYPHIMURIUM / UC6164, strain UC6164

Compound	MIC (Corynebacterium pyogenes) [µg/mL]	MIC (Streptococcus suis) [µg/mL]	MIC [1] [µg/mL]	MIC (Enterococcus faecalis) [µg/mL]	MIC (Pseudomonas aeruginosa) [µg/mL]	MIC (Staphylococcus aureus; strain UC6093) [µg/mL]	MIC (Staphylococcus aureus; strain UC6097) [µg/mL]	MIC (Staphylococcus aureus; strain UC9203) [µg/mL]	MIC (Pasteurella hemolytica; strain UC6531) [µg/mL]	MIC (Pasteurella hemolytica; strain UC6532) [µg/mL]	MIC (Pasteurella hemolytica; strain UC9582) [µg/mL]	MIC [2] [µg/mL]	MIC (Enterococcus faecium) [µg/mL]	MIC (Salmonella choleraesuis; [3]) [µg/mL]	MIC (Salmonella choleraesuis; [4]) [µg/mL]	MIC (Micrococcus luteus) [µg/mL]	MIC (Pasteurella multocida) [µg/mL]	MIC (Streptococcus agalactiae; strain UC6892) [µg/mL]	MIC (Streptococcus uberis; strain UC3946) [µg/mL]	MIC (Streptococcus uberis; strain UC6159) [µg/mL]	also measured
CO/N=C(\C(=O)N[C@@H]1C(=O)N2C(C(=O)O)=C(CSSCc3ccccc3)CS[C@H]12)c1csc(N)n1 [Example 14]	0.25 (≈ 0.453 µM)	≤ 0.06	> 32	> 32	> 32	1 (≈ 1.81 µM)	1 (≈ 1.81 µM)	1 (≈ 1.81 µM)	0.5 (≈ 0.906 µM)	0.25 (≈ 0.453 µM)	2 (≈ 3.63 µM)	≤ 0.06	> 32	16 (≈ 29 µM)	32 (≈ 58 µM)	≤ 0.06	2 (≈ 3.63 µM)	≤ 0.06	≤ 0.06	8 (≈ 14.5 µM)	MIC (Streptococcus bovis): ≤ 0.06 µg/mL; MIC (Escherichia coli; strain UC3784): 8 µg/mL (≈ 14.5 µM); MIC (Escherichia coli; strain UC6720): 16 µg/mL (≈ 29 µM); MIC (Escherichia coli; strain UC9670): 8 µg/mL (≈ 14.5 µM); MIC (Salmonella typhimurium; [5]): 16 µg/mL (≈ 29 µM); MIC (Salmonella typhimurium; [6]): 16 µg/mL (≈ 29 µM)
CO/N=C(\C(=O)N[C@@H]1C(=O)N2C(C(=O)O)=C(CSSCc3ccco3)CS[C@H]12)c1csc(N)n1 [Example 16]	0.13 (≈ 0.24 µM)	≤ 0.06	> 32	> 32	> 32	1 (≈ 1.85 µM)	2 (≈ 3.69 µM)	1 (≈ 1.85 µM)	0.25 (≈ 0.462 µM)	0.13 (≈ 0.24 µM)	0.13 (≈ 0.24 µM)	≤ 0.06	> 32	16 (≈ 29.5 µM)	32 (≈ 59.1 µM)	≤ 0.06	1 (≈ 1.85 µM)	≤ 0.06	≤ 0.06	4 (≈ 7.38 µM)	MIC (Streptococcus agalactiae; strain UC3947): ≤ 0.06 µg/mL; MIC (Streptococcus bovis): ≤ 0.06 µg/mL; MIC (Escherichia coli; strain UC3784): 4 µg/mL (≈ 7.38 µM); MIC (Escherichia coli; strain UC6720): 8 µg/mL (≈ 14.8 µM); MIC (Escherichia coli; strain UC9670): 4 µg/mL (≈ 7.38 µM); MIC (Salmonella typhimurium; [5]): 16 µg/mL (≈ 29.5 µM); MIC (Salmonella typhimurium; [6]): 8 µg/mL (≈ 14.8 µM)
CCC(C)SSCC1=C(C(=O)O)N2C(=O)[C@@H](NC(=O)/C(=N\OC)c3csc(N)n3)[C@H]2SC1 (some centres unmarked) [Example 13]	32 (≈ 61.8 µM)	≤ 0.06	> 32	> 32	> 32	4 (≈ 7.73 µM)	2 (≈ 3.86 µM)	2 (≈ 3.86 µM)	1 (≈ 1.93 µM)	0.13 (≈ 0.251 µM)	0.25 (≈ 0.483 µM)	≤ 0.06	> 32	32 (≈ 61.8 µM)	> 32	0.13 (≈ 0.251 µM)	8 (≈ 15.5 µM)	> 32	0.13 (≈ 0.251 µM)	8 (≈ 15.5 µM)	MIC (Streptococcus agalactiae; strain UC3947): 2 µg/mL (≈ 3.86 µM); MIC (Streptococcus bovis): > 32 µg/mL; MIC (Escherichia coli; strain UC3784): 8 µg/mL (≈ 15.5 µM); MIC (Escherichia coli; strain UC6720): 16 µg/mL (≈ 30.9 µM); MIC (Escherichia coli; strain UC9670): 8 µg/mL (≈ 15.5 µM); MIC (Salmonella typhimurium; [5]): 16 µg/mL (≈ 30.9 µM); MIC (Salmonella typhimurium; [6]): 16 µg/mL (≈ 30.9 µM)
